From patent US20220394979A1 (priority 2021, published 2022)
Where two headings read alike, the source gives them in different places.

Experiments:
bacteria = settings: quat 0.5% (5 g/L), cited from earlier work
virus = settings: quat 0.5% (5 g/L), cited from earlier work
[1] = test system: parasites and protozoan oocysts; settings: 20,000 mg/L ammonium phosphate, NH3 30 mg/L at pH 7.4, 300 mg/L at pH 8.4, cited from earlier work
[2] = recommended storage conditions; cited from earlier work
C. perfringes = settings: Ammonia at 0.1% w/w

C12-C14-alkyl (ethylbenzyl) dimethyl ammonium chloride [Quaternary Amines]
Degree of Inactivation: log reduction of bacteria (bacteria): 9 log reduction of bacteria | Degree of Inactivation: log reduction of bacteria (bacteria; listed as Quats): 9 log reduction of | Degree of Inactivation: log reduction of virus (virus): 6 log reduction, of virus | Degree of Inactivation: log reduction of virus (virus; listed as Quats): 6 log reduction. of

N.N.O=P(O)(O)O [Ammonium Phosphate/Nonionized Ammonia, Ammonium Phosphate Dibasic]
Degree of Inactivation: log reduction of parasites and protozoan oocysts [1]: 6 log reduction of parasites and | Degree of Inactivation: log reduction of parasites and protozoan oocysts ([1]; listed as Ammonium Phosphate): 6 log reduction of | Storage stability [2]: Stable under recommended storage

N [Ammonia]
level of C. perfringes after treatment (C. perfringes; raw biosolids at 1×10^7): less than 2×10^2 | log reduction of spore forming bacteria and parasites (C. perfringes; raw biosolids): five log reductions
